Reference: ChEMBL document CHEMBL5050844 (2019)

Tests used:
[1] = Induction of anti-CD3/CD28 antibodies-stimulated human T cell activation at 1 uM assessed fold increase in CD25 expression measured by ELISA assay; type: functional, T cell line
[2] = Induction of anti-CD3/CD28 antibodies-stimulated human T cell activation at 1 uM assessed fold increase in IL-2 secretion measured by ELISA assay; type: functional, T cell line
[3] = biological target: T1, E3 ubiquitin-protein ligase CBL-B (Homo sapiens, UniProt Q13191); test: Binding affinity towards N-terminal biotinylated Avi-tagged human CBL-B (36 to 427 residues) measured by surface plasmon resonance assay
T1 sequence (Q13191 whole entry, the tested form may be a part): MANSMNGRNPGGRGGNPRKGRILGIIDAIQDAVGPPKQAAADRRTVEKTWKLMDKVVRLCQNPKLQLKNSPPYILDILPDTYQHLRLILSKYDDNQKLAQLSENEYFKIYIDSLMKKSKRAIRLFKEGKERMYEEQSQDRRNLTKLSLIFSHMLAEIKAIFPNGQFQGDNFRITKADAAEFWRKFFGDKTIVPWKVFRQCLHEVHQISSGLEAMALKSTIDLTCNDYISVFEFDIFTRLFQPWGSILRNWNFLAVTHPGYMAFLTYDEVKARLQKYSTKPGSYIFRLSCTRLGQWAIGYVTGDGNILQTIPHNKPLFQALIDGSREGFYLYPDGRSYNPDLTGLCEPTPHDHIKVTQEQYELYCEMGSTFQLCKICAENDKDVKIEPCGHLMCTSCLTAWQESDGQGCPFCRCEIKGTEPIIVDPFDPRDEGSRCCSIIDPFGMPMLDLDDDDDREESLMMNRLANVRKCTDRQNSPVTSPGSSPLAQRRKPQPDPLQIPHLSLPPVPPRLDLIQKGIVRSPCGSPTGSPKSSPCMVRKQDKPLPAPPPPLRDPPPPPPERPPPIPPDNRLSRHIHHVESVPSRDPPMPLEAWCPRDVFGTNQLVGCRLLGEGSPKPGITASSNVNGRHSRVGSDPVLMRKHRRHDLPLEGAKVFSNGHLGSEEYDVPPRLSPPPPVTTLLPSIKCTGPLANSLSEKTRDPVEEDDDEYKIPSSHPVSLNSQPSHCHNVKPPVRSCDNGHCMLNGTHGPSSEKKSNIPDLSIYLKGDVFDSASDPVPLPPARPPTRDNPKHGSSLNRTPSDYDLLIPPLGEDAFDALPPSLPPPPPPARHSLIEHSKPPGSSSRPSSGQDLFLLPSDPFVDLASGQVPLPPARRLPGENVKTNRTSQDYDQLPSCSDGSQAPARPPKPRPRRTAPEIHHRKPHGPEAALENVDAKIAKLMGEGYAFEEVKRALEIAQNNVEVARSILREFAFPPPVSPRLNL

[4] = Induction of anti-CD3/CD28 antibodies-stimulated human T cell activation at 4 uM assessed fold increase in IL-2 secretion measured by ELISA assay; type: functional, T cell line
[5] = Induction of anti-CD3 antibodies-stimulated human T cell activation at 1 uM assessed fold increase in CD25 expression measured by ELISA assay; type: functional, T cell line
[6] = Induction of anti-CD3 antibodies-stimulated human T cell activation at 8 uM assessed fold increase in CD25 expression measured by ELISA assay; type: functional, T cell line
[7] = Induction of anti-CD3/CD28 antibodies-stimulated human T cell activation at 4 uM assessed fold increase in CD25 expression measured by ELISA assay; type: functional, T cell line
[8] = Induction of anti-CD3/CD28 antibodies-stimulated human T cell activation at 0.3 uM assessed fold increase in IL-2 secretion measured by ELISA assay; type: functional, T cell line
[9] = Induction of anti-CD3 antibodies-stimulated human T cell activation at 1 uM assessed fold increase in IL-2 secretion measured by ELISA assay; type: functional, T cell line
[10] = Induction of anti-CD3/CD28 antibodies-stimulated human T cell activation at 0.3 uM assessed fold increase in CD25 expression measured by ELISA assay; type: functional, T cell line
[11] = Induction of anti-CD3 antibodies-stimulated human T cell activation at 8 uM assessed fold increase in IL-2 secretion measured by ELISA assay; type: functional, T cell line
[12] = biological target: T1, E3 ubiquitin-protein ligase CBL-B; test: Inhibition of N-terminal Avi-tagged human CBL-B (36 to 427 residues) incubated with 60 nM Src kinase for 1.5 hrs followed by incubation with fluorescently labeled UbcH5B-Ub for 1 hr and measured by TR-FRET assay; type: single protein

Row | SMILES | fold change (FC) [1] | fold change (FC) [2] | Kd [3] [nM] | fold change (FC) [4] | fold change (FC) [5] | fold change (FC) [6] | fold change (FC) [7] | fold change (FC) [8] | fold change (FC) [9] | fold change (FC) [10] | fold change (FC) [11] | IC50 [12] [nM]
1 | Cc1cc(C(=O)Nc2cccc([C@@](C)(F)C(F)(F)c3nncn3C)c2)nc(C2CC2)n1 | 1.31 | 2.51 | < 100 | >=7.5 | 0.801 | >=1.001 | 1.31 | 1.01 | 0.101 | 1.01 | >=0.201 | –
2 | C[C@@H]1[C@@H](c2nncn2C)[C@H]1c1cccc(N2Cc3c(cccc3C(F)(F)F)C2=O)c1 | 1.01 | 2.51 | < 100 | 5 | >=1.001 | >=1.001 | 1.31 | >=7.5 | 0.101 | >=1.76 | >=0.201 | < 100
3 | CC1C=NN=C1C[C@@H](C)c1cccc(N2Cc3c(cc(C(=O)N4C[C@@H](O)C[C@H]4C)cc3C(F)(F)F)C2=O)c1 (some centres not stated) | 1.01 | 2.51 | < 100 | >=7.5 | >=1.001 | >=1.001 | 1.31 | 1.01 | 0.151 | 1.01 | >=0.201 | < 100
4 | CCOc1cc([C@H](C)Cc2nncn2C)cc(N2Cc3c(cccc3C(F)(F)F)C2=O)n1 | 1.31 | 5 | < 100 | >=7.5 | >=1.001 | >=1.001 | 1.31 | 2.51 | 0.151 | 1.01 | >=0.201 | < 100
5 | C[C@H](Cc1nncn1C)c1cccc(N2Cc3c(cc(CN4C[C@@H](F)[C@@H](O)C4)cc3C(F)(F)F)C2=O)c1 | 1.31 | 5 | < 100 | >=7.5 | >=1.001 | >=1.001 | 1.31 | 2.51 | 0.151 | 1.01 | >=0.201 | < 100
6 | Cn1cnnc1C(F)(F)[C@](C)(F)c1cccc(N2Cc3c(cc(CN4CC[C@@H](S(C)(=O)=O)C4)cc3C(F)(F)F)C2=O)c1 | 1.01 | 5 | < 100 | >=7.5 | 0.801 | >=1.001 | 1.31 | 2.51 | 0.151 | 1.01 | >=0.201 | < 100
7 | Cn1cnnc1C(F)(F)[C@](C)(F)c1cccc(N2Cc3c(cc(CN4CC[C@H](S(C)(=O)=O)C4)cc3C(F)(F)F)C2=O)c1 | 1.01 | 2.51 | < 100 | >=7.5 | 0.801 | >=1.001 | 1.01 | 2.51 | 0.101 | 1.01 | >=0.201 | < 100
8 | C[C@H](CC1=NN=CC1C(F)(F)F)c1cccc(N2Cc3c(cc(C(=O)N4CC[C@H](O)C4)cc3C(F)(F)F)C2=O)c1 (some centres not stated) | 1.01 | 1.01 | < 100 | 2.51 | 0.801 | >=1.001 | 1.01 | 1.01 | 0.051 | 1.01 | 0.151 | < 100
9 | C[C@H](Cc1nncn1C)c1cccc(N2Cc3c(cc(CO)cc3C(F)(F)F)C2=O)c1 | 1.01 | 5 | < 100 | >=7.5 | >=1.001 | >=1.001 | 1.31 | 2.51 | 0.151 | 1.01 | >=0.201 | < 100
10 | C[C@H](Cc1nncn1C)c1cccc(N2Cc3c(cc(CN4C[C@@H](O)[C@H](F)C4)cc3C(F)(F)F)C2=O)c1 | 1.31 | >=7.5 | < 100 | >=7.5 | >=1.001 | >=1.001 | 1.31 | 2.51 | >=0.201 | 1.01 | >=0.201 | < 100
11 | C[C@H](Cc1nncn1C)c1cccc(N2Cc3c(cc(CN4CC(O)C(F)(F)C4)cc3C(F)(F)F)C2=O)c1 (some centres not stated) | 1.31 | 5 | < 100 | >=7.5 | >=1.001 | >=1.001 | 1.31 | 2.51 | 0.101 | 1.01 | >=0.201 | < 100
12 | Cn1cnnc1CC1(c2cccc(N3Cc4c(cc(CN5CC[C@H](F)C5)cc4C4CC4)C3=O)c2)COC1 | 1.31 | >=7.5 | < 100 | – | >=1.001 | – | – | >=7.5 | 0.151 | 1.31 | – | < 100
13 | Cn1cnnc1C(F)(F)[C@](C)(F)c1cccc(N2Cc3c(cc(CN4CC(F)C4)cc3C(F)(F)F)C2=O)c1 | 1.01 | 5 | < 100 | >=7.5 | 0.801 | >=1.001 | 1.31 | 1.01 | 0.101 | 1.01 | >=0.201 | –
14 | Cn1cnnc1CC1(c2cccc(NC(=O)c3cc(Cn4ccnn4)nc(C4CC4)n3)c2)COC1 | 1.31 | 2.51 | < 100 | – | 0.801 | – | – | 1.01 | 0.101 | 1.01 | – | < 100
15 | C[C@H](Cc1nncn1C)c1cccc(NC(=O)c2cc(C(=O)N3CC(O)C(F)(F)C3)ccn2)c1 (some centres not stated) | <=1 | <=1 | > 10000 | 2.51 | 0.601 | 0.801 | 1.31 | <=1 | >=0.201 | <=1 | >=0.201 | –
16 | C[C@H](c1cc2c(c(C(F)(F)F)c1)CN(c1cccc(C3(C(F)(F)c4nncn4C)COC3)c1)C2=O)N1CC[C@H](F)C1 | >=1.76 | >=7.5 | < 100 | – | >=1.001 | – | – | >=7.5 | >=0.201 | >=1.76 | – | < 100
